Experimental data from patent US11951214B2, “Capsule formulations” (CHEMOCENTRYX, INC., priority 2018, dated 2024).
Converted amounts (≈) assume the structure as drawn.

How the values were obtained:
[1] = Pharmacokinetics of solid solution capsules in dogs; details: male, beagle, dog, in vivo, po, 20 mg, PO 20 mg/dog
Experimental: Solid Solution capsules of Compound 1 comprising 50:50 macrogol-40-glycerol hydroxystearate:PEG-4000 or 100% macrogol-40-glycerol hydroxystearate were prepared using the general procedures described in Example 4. The PEG heating steps were omitted for the 100% macrogol-40 glycerol hydroxystearate formulations. These formulations were dosed in beagle dogs (male) at 20 mg per dog to evaluate the pharmacokinetic profile. The results are summarized in Table 11 (below, and shown in FIG. 8 (50:50 macrogol-40-glycerol hydroxystearate:PEG-4000 and FIG. 9 (100% macrogol-40-glycerol hydroxystearate).

[2] = Pharmacokinetics of solid solution capsule in patients with ANCA associated vasculitis; assay type: in vivo, Humans; details: for Days 57-85 Cmin, Mean / AUC(0-t) / Cmax / Tmax: 30 mg twice daily oral, 50:50 solid solution capsules; for AUC(0-t) / Cmax / Tmax: human, in vivo, po; for AUC(0-t): read-out: Day 1 AUC0-6hr, Mean; for Cmax: read-out: Day 1 Cmax, Mean; for Tmax: read-out: Day 1 Tmax, Mean
Experimental: Solid Solution capsules of Compound 1 comprising 50:50 macrogol-40-glycerol hydroxystearate:PEG-4000 were prepared using the general procedures described in Example 4.
Patients with AAV were randomized and double-blind in placebo-controlled clinical trial conducted in a step-wise manner to evaluate the efficacy and safety of Compound 1 formulated in a solid solution as described above with reduced or no prednisone in comparison with the standard of care full dose prednisone. All patients received either cyclophosphamide (CYC) or rituximab (RTX) intravenously. 22 subjects received 30 mg of Compound 1 as described above b.i.d. for 84 days and no prednisone (prednisone-matching placebo), 22 subjects received 30 mg Compound 1 as described above b.i.d. for 84 days plus a reduced starting dose (i.e., 20 mg/day) of prednisone, and 23 subjects received Compound 1 as described above—matching placebo b.i.d. for 84 days plus a full starting dose of prednisone (i.e., 60 mg/day). All subjects received IV cyclophosphamide or rituximab.

[3] = Food effect study (high fat, high calorie meal) in healthy volunteers; assay type: in vivo, human; details: for Tmax / AUC(0-inf) / AUC(0-t) / Cmax: human, plasma, 30 mg; for AUC(0-inf): read-out: AUC0-inf, Geometric LSM; for AUC(0-t): read-out: AUC0-t, Geometric LSM; for Cmax: read-out: Cmax, Geometric LSM
Experimental: An open-label study in 16 healthy volunteers to evaluate the pharmacokinetic effect of a high fat (˜50% of total caloric content of the meal), high calorie meal on the solid solution capsule of Compound 1 in a 50:50 mixture of macrogol-40-glycerol hydroxystearate:PEG-4000. Subjects received a single oral dose of 30 mg Compound 1, given in the fed or fasted state. Blood samples were collected for measurement of Compound 1 plasma concentrations.

[4] = pH solubility profile of Compound 1 in buffers, water, HCl and biorelevant media; assay type: physicochemical
[5] = capsule in 50:50 macrogol-40-glycerol hydroxystearate:PEG-4000, Average of T1-T3
[6] = capsule in 50:50 macrogol-40-glycerol hydroxystearate:PEG-4000, trial T1
[7] = capsule in 50:50 macrogol-40-glycerol hydroxystearate:PEG-4000, trial T2
[8] = capsule in 50:50 macrogol-40-glycerol hydroxystearate:PEG-4000, trial T3
[9] = capsule in 100% macrogol-40-glycerol hydroxystearate, Average of T1-T3
[10] = capsule in 100% macrogol-40-glycerol hydroxystearate, trial T1
[11] = capsule in 100% macrogol-40-glycerol hydroxystearate, trial T2
[12] = capsule in 100% macrogol-40-glycerol hydroxystearate, trial T3
[13] = AAV patients, Compound 1 + Low Dose Prednisone
[14] = 30 mg, AAV patients, Compound 1 + No Prednisone
[15] = 30 mg, AAV patients, Compound 1 with or without Prednisone
[16] = healthy volunteers, 30 mg single oral dose, 100 × (test/reference)
[17] = high fat, high calorie meal with 30 mg Compound 1
[18] = po, healthy volunteers, 30 mg single oral dose, 50:50 solid solution capsule, Fasted
[19] = po, healthy volunteers, 30 mg single oral dose, 50:50 solid solution capsule, Fed (high fat, high calorie meal)

Cc1ccc(NC(=O)[C@H]2CCCN(C(=O)c3c(C)cccc3F)[C@H]2c2ccc(NC3CCCC3)cc2)cc1C(F)(F)F [Compound 1, (2R,3 S)-2-(4-(cyclopentylamino)phenyl)-1-(2-fluoro-6-methylbenzoyl)-N-(4-methyl-3-(trifluoromethyl)phenyl)piperidine-3-carboxamide]
AUC(0-inf) [1, 5]: 1630 ng·h/mL
AUC(0-t) [1, 5]: 1580 ng·h/mL
Cmax [1, 5]: 429 ng/mL
MRT [1, 5]: 4.7 h
Tmax [1, 5]: 1.3 h
AUC(0-inf) [1, 6]: 1310 ng·h/mL
AUC(0-t) [1, 6]: 1260 ng·h/mL
Cmax [1, 6]: 411 ng/mL
MRT [1, 6]: 4.8 h
Tmax [1, 6]: 1 h
AUC(0-inf) [1, 7]: 1440 ng·h/mL
AUC(0-t) [1, 7]: 1390 ng·h/mL
Cmax [1, 7]: 396 ng/mL
MRT [1, 7]: 4.5 h
Tmax [1, 7]: 1 h
AUC(0-inf) [1, 8]: 2150 ng·h/mL
AUC(0-t) [1, 8]: 2080 ng·h/mL
Cmax [1, 8]: 481 ng/mL
MRT [1, 8]: 4.8 h
Tmax [1, 8]: 2 h
AUC(0-inf) [1, 9]: 2440 ng·h/mL
AUC(0-t) [1, 9]: 2370 ng·h/mL
Cmax [1, 9]: 607 ng/mL
MRT [1, 9]: 4.8 h
Tmax [1, 9]: 2.3 h
AUC(0-inf) [1, 10]: 2660 ng·h/mL
AUC(0-t) [1, 10]: 2470 ng·h/mL
Cmax [1, 10]: 590 ng/mL
MRT [1, 10]: 7.1 h
Tmax [1, 10]: 2 h
AUC(0-inf) [1, 11]: 3020 ng·h/mL
AUC(0-t) [1, 11]: 3000 ng·h/mL
Cmax [1, 11]: 604 ng/mL
MRT [1, 11]: 4.2 h
Tmax [1, 11]: 4 h
AUC(0-inf) [1, 12]: 1660 ng·h/mL
AUC(0-t) [1, 12]: 1650 ng·h/mL
Cmax [1, 12]: 628 ng/mL
MRT [1, 12]: 3.2 h
Tmax [1, 12]: 1 h
Days 57-85 Cmin, Mean [2, 13]: 219 ng/mL
Days 57-85 Cmin, Mean ([2]; AAV patients, Compound 1 + No Prednisone): 177 ng/mL
Days 57-85 Cmin, Mean ([2]; AAV patients, Compound 1 with or without Prednisone): 204 ng/mL
absorption ([2]; following the first dose of 30 mg on Day 1, AAV patients): absorbed rapidly
AUC(0-t) [2, 14]: 526 ng·h/mL
Cmax [2, 14]: 166 ± 55.2 ng/mL
Tmax [2, 14]: 2.85 h
AUC(0-t) [2, 15]: 580 ± 219 ng·h/mL
Cmax [2, 15]: 188 ± 69 ng/mL
Tmax [2, 15]: 2.62 h
AUC(0-t) [2, 13]: 643 ng·h/mL
Cmax [2, 13]: 214 ng/mL
Tmax [2, 13]: 2.35 h
drug-drug interaction ([2]; with concomitant medications prednisone, cyclophosphamide, and rituximab, AAV patients): No significant drug-drug interaction
AUC0-inf, GMR (fed/fasted) [3, 16]: 171.60%
AUC0-t, GMR (fed/fasted) [3, 16]: 170.68%
Cmax, GMR (fed/fasted) [3, 16]: 107.98%
Tmax, GMR (fed/fasted) [3, 16]: 235.29%
increase of Cmax, fed compared to fasted [3, 17]: 8%
increase of plasma Compound 1 AUC, fed compared to fasted [3, 17]: approximately 70%
Tmax ([3]; oral, high fat, high calorie meal with 30 mg Compound 1, read-out: delay of Tmax in the fed population): ~3 h
AUC(0-inf) [3, 18]: 959 ng·h/mL
AUC(0-t) [3, 18]: 826 ng·h/mL
Cmax [3, 18]: 119 ng/mL
Tmax ([3]; po, healthy volunteers, 30 mg single oral dose, 50:50 solid solution capsule, Fasted, read-out: Tmax, untransformed LSM): 2.29 h
AUC(0-inf) [3, 19]: 1650 ng·h/mL
AUC(0-t) [3, 19]: 1410 ng·h/mL
Cmax [3, 19]: 128 ng/mL
Tmax ([3]; po, healthy volunteers, 30 mg single oral dose, 50:50 solid solution capsule, Fed (high fat, high calorie meal), read-out: Tmax, untransformed LSM): 5.38 h
solubility ([4]; Fasted-State Simulated Intestinal Fluid (FaSSIF), FaSSIF, pH 6.5, actual pH 6.47): 0.656 µg/mL (≈ 1.13 µM)
solubility ([4]; Fed-State Simulated Intestinal Fluid (FeSSIF), FeSSIF, pH 5, actual pH 4.98): 2.09 µg/mL (≈ 3.6 µM)
solubility ([4]; Fed-State Simulated Intestinal Fluid (FeSSIF), FeSSIF, pH 6.5, actual pH 6.47): 1.96 µg/mL (≈ 3.37 µM)
solubility ([4]; Simulated Gastric Fluid (SGF), simulated gastric fluid, SGF, pH 1.6, actual pH 1.39): 2.65 µg/mL (≈ 4.55 µM)
solubility ([4]; Water, actual pH 5.92): 0.008 µg/mL (≈ 0.0138 µM)
aqueous solubility ([4]; across full spectrum of pH range, including the biorelevant media and water): very poor aqueous solubility
solubility ([4]; aqueous buffer, pH 2 Buffer, actual pH 1.99): 0.863 µg/mL (≈ 1.48 µM)
solubility ([4]; aqueous buffer, pH 3 Buffer, actual pH 3.01): 0.101 µg/mL (≈ 0.174 µM)
solubility ([4]; aqueous buffer, pH 4 Buffer, actual pH 4.01): 0.013 µg/mL (≈ 0.0224 µM)
solubility ([4]; aqueous buffer, pH 5 Buffer, actual pH 5.00): 0.021 µg/mL (≈ 0.0361 µM)
solubility ([4]; aqueous buffer, pH 6 Buffer, actual pH 6.00): 0.021 µg/mL (≈ 0.0361 µM)
solubility ([4]; aqueous buffer, pH 7 Buffer, actual pH 7.03): 0.053 µg/mL (≈ 0.0911 µM)
solubility ([4]; aqueous buffer, pH 8 Buffer, actual pH 8.00): 0.068 µg/mL (≈ 0.117 µM)
solubility ([4]; aqueous buffer, pH 9 Buffer, actual pH 9.00): 0.101 µg/mL (≈ 0.174 µM)
solubility ([4]; aqueous buffer, pH 10 Buffer, actual pH 9.95): 0.03 µg/mL (≈ 0.0516 µM)
solubility ([4]; simulated gastric fluid, 0.1N HCl, actual pH 1.05): 8.05 µg/mL (≈ 13.8 µM)
